Experimental data reported in US20220387411A1, “TARGETED AUTOPHAGY CONJUGATES AND METHODS” (Frontier Medicines Corporation, priority 2019, published 2022).

What follows are compounds tested against Protein SQSTM1 (p62) (Homo sapiens, UniProt Q13501) (assay: Dose response of Compound 1 and Compound 19 against SQSTM1 (TAMRA fluorescence)). Conditions: pre-incubated at 2, 0.5, 0.125 and 0.03 μM, then reactive probe TAMRA; FIG. 1.
Format: binding
Method: Protein SQSTM1 (p62) was pre-incubated with either Compound 1 or Compound 19 at concentrations of 2, 0.5, 0.125, and 0.03 μM, followed by addition of the reactive probe 5-carboxytetramethylrhodamine (TAMRA). Measurements were made using TAMRA fluorescence. Silver staining of the protein was used as a protein loading control. Decreasing fluorescence of TAMRA indicates binding of the test compound.

Chain of Protein SQSTM1 (p62) (Q13501 whole entry): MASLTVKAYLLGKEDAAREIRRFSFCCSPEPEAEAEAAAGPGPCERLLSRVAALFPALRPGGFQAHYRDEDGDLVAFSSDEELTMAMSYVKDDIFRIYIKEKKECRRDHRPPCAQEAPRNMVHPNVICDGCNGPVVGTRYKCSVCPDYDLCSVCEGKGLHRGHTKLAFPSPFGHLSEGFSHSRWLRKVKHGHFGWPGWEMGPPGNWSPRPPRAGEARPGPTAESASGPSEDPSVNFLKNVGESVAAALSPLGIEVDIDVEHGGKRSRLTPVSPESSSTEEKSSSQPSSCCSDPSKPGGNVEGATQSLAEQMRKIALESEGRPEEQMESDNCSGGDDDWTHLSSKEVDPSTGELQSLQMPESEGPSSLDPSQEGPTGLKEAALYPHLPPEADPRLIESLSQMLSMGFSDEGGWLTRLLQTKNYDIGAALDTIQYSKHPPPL

binding to SQSTM1 (decreasing TAMRA fluorescence)	SMILES
covalently bind to SQSTM1	COc1ccc(CN(C(=O)CCl)c2nccs2)c(OC)c1 [Compound 1, 2-chloro-N-(2,4-dimethoxybenzyl)-N-(thiazol-2-yl)acetamide]
covalently bind to SQSTM1	O=C(CCl)N1CCCCC(F)(F)C1 [Compound 19, 2-chloro-1-(3,3-difluoroazepan-1-yl)ethanone]

These compounds were tested against T1, Recombinant pure human SQSTM1 protein (Homo sapiens, UniProt Q13501) (assay: Inhibition of IA-Rhodamine labeling of SQSTM1 (gel-based, densitometry)). Conditions: 50 μM of test compound (initial screen); 30 min at 37° C., then 100 nM IA-Rhodamine 1 hour; inhibition of target labeling by densitometry.
T1 construct: purchased Origene
T1 sequence (Q13501 whole entry): as above
Format: binding
Method: Recombinant pure human SQSTM1 protein was purchased from Origene. SQSTM1 protein (0.21 μg) was diluted into 50 μL of PBS and 1 μL of either DMSO (vehicle) or covalently acting small molecule (test compound) to achieve the desired concentration. After 30 min. at 37° C., the samples were treated with 100 nM IA-Rhodamine (tetramethylrhodamine-5-iodoacetamide dihydroiodide; Setareh Biotech, 6222, prepared in anhydrous DMSO) for 1 hour at room temperature. Samples were then diluted with 20 μL of 4× reducing Laemmli SDS sample loading buffer (Alfa Aesar) and heated at 90° C. for 5 min. The samples were separated on precast 4-20% Criterion TGX gels (Bio-Rad Laboratories, Inc.). Fluorescent imaging was performed on a ChemiDoc MP instrument (Bio-Rad Laboratories, Inc.), and inhibition of target labeling was assessed by densitometry using ImageJ software. The initial screen was performed using 50 μM of test compound.

inhibition at 50 µM	SMILES	% inhibition
79%	COc1ccc(CN(C(=O)CCl)c2nccs2)c(OC)c1 [Compound 1, 2-chloro-N-(2,4-dimethoxybenzyl)-N-(thiazol-2-yl)acetamide]	
83%	O=C(CCl)N1CCCCC(F)(F)C1 [Compound 19, 2-chloro-1-(3,3-difluoroazepan-1-yl)ethanone]	
35%	O=C(CCl)N1Cc2ccnn2CC(O)C1 (centres unmarked) [Compound 55, 2-chloro-1-(7-hydroxy-7,8-dihydro-4H-pyrazolo[1,5-a][1,4]diazepin-5(6H)-yl)ethanone]	
50%	O=C(CCl)N1CCc2nccn2CC1 [Compound 56, 2-chloro-1-(8,9-dihydro-5H-imidazo[1,2-d][1,4]diazepin-7(6H)-yl)ethanone]	
58%	CC(C)(C)OC(=O)N1CCCC12CCCN(C(=O)CCl)CC2 (centres unmarked) [Compound 57, Tert-butyl 8-(2-chloroacetyl)-1,8-diazaspiro[4.6]undecane-1-carboxylate]	
82%	CC(C)(C)OC(=O)N1CCCCC2(CCCCN(C(=O)CCl)C2)C1 (centres unmarked) [Compound 58, Tert-butyl 9-(2-chloroacetyl)-2,9-diazaspiro[6.6]tridecane-2-carboxylate]	
21%	CC(C)(C)OC(=O)N1CCN(C(=O)CCl)CC2(CCCC(=O)N2)C1 (centres unmarked) [Compound 60, Tert-butyl 11-(2-chloroacetyl)-2-oxo-1,8,11-triazaspiro[5.6]dodecane-8-carboxylate]	
18%	CC(C)(C)OC(=O)N1CC2CC1CN(C(=O)CCl)C2 (centres unmarked) [Compound 61, Tert-butyl 3-(2-chloroacetyl)-3,6-diazabicyclo[3.2.1]octane-6-carboxylate]	
35%	O=C(CCl)N1CCNCC(O)C1 (centres unmarked) [Compound 67, 2-chloro-1-(6-hydroxy-1,4-diazepan-1-yl)ethanone]	
44%	NC1CCCCN(C(=O)CCl)C1 (centres unmarked) [Compound 68, 1-(3-aminoazepan-1-yl)-2-chloro-ethanone]	

Further lines, the compound ahead of its results:

SMILES	inhibition at 50 µM	% inhibition
CCOC(=O)c1cnc2n1CCN(C(=O)CCl)CC2 [Compound 54, Ethyl 7-(2-chloroacetyl)-6,7,8,9-tetrahydro-5H-imidazo[1,2-d][1,4]diazepine-3-carboxylate]	46%	
O=C(CCl)N(C1CCNCC1)C1CC1 [Compound 62, 2-chloro-N-cyclopropyl-N-(4-piperidyl)acetamide]	27%	
O=C(CCl)N(C1CCNCC1)C1CCOCC1 [Compound 63, 2-chloro-N-(piperidin-4-yl)-N-(tetrahydro-2H-pyran-4-yl)acetamide]		not active
CC(C)N(C(=O)CCl)C1CCCNCC1 (centres unmarked) [Compound 64, N-(azepan-4-yl)-2-chloro-N-isopropyl-acetamide]	22%	
COC(=O)c1ccc(CN(C(=O)CCl)C2CCNCC2)[nH]1 [Compound 65, Methyl 5-[[(2-chloroacetyl)-(4-piperidyl)amino]methyl]-1H-pyrrole-2-carboxylate]	7%	
C[C@H]1CNCCCN1C(=O)CCl [Compound 66, (S)-2-chloro-1-(2-methyl-1,4-diazepan-1-yl)ethanone]		not active
O=C(CCl)N1CCCC2(CCCN2)CC1 (centres unmarked) [Compound 69, 2-chloro-1-(1,8-diazaspiro[4.6]undecan-8-yl)ethanone]	22%	
O=C(CCl)N1CCCCC2(CCCCNC2)C1 (centres unmarked) [Compound 70, 2-chloro-1-(2,9-diazaspiro[6.6]tridecan-2-yl)ethanone]	22%	
O=C(CCl)N1CCOCC2(CNCCO2)C1 (centres unmarked) [Compound 71, 2-chloro-1-(1,8-dioxa-4,11-diazaspiro[5.6]dodecan-11-yl)ethanone]		not active
O=C1CCCC2(CNCCN(C(=O)CCl)C2)N1 (centres unmarked) [Compound 72, 8-(2-chloroacetyl)-1,8,11-triazaspiro[5.6]dodecan-2-one]		not active
O=C(CCl)N1CC2CNC(C2)C1 (centres unmarked) [Compound 73, 2-chloro-1-(3,6-diazabicyclo[3.2.1]octan-3-yl)ethanone]	38%	
